Test results from publication PMC2586070 (Peptides, 2008).
Where no end group is shown, it is not given here.

System: blood-brain barrier (BBB)
Format: in vivo, male CD-1 mice

triolein was tested, and the “enhancement of I-Ghr transport across the BBB” value (triolein 7.2 mg/mouse iv with I-Ghr, 8 week old mice) was “over 70%”.
For “I-Ghr: Human ghrelin radioactively labeled with 131I by the chloramine-T method, purified by reverse-phase HPLC (GSSFLSPEHQRVQQRKESKKPPAKLQPR; ends and bridges not checked; also: 131I radiolabel, site not given here; UniProt Q9UBU3 24-51, looked up)”, the “effect of 48 h fasting on Ki of I-Ghr vs fed animals” value (mouse, in vivo, iv) was “arithmetic increase”.
In the case of CNC[C@H](O)c1ccc(O)c(O)c1 [Epinephrine], the “effect on I-Ghr uptake across the BBB” value (epinephrine 40 nmol/mouse in the iv injection, 8 week old mice) is reported as “no effect”.
